Laboratory results reported in PubChem BioAssay (NCI).
Values joined by “and” are separate entries in the source; they are usually repeats but may differ in a detail not shown here. Equal values may be shown once.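 Cultured in 96-well plates, cells were exposed to test compound for 48 hours across five concentrations. GI50 marks 50% less growth. TGI: concentration producing complete growth inhibition.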

Experiments:
Assay in all cases: NCI anticancer screen, dose series, 48 h
[1] = test system: SK-MEL-28 melanoma
[2] = test system: TK-10 renal
[3] = test system: SK-OV-3 ovarian
[4] = test system: COLO 205 colon
[5] = test system: NCI/ADR-RES ovarian
[6] = test system: DU-145 prostate
[7] = test system: RXF 393 renal
[8] = test system: PC-3 prostate
[9] = test system: UO-31 renal
[10] = test system: UACC-257 melanoma

Q: How did the GI50 [1] turn out when `COc1cc([C@@H]2C[C@H]2c2cc(SC)n[nH]2)cc(OC)c1OC` was run?
A: The GI50 was 23.5 µM.

Q: And the TGI [1]?
A: The TGI was > 100 µM.

Q: What about the GI50 [2] of the same compound?
A: Its GI50 is 22.5 µM.

Q: What about the TGI [2] of the same compound?
A: Its TGI is 52.5 µM.

Q: What about the GI50 [3] of the same compound?
A: Its GI50 is 17.4 µM.

Q: And the TGI [3]?
A: Its TGI is 65.2 µM.

Q: And the GI50 [4]?
A: The GI50 was 20.5 µM.

Q: What about the TGI [4] of the same compound?
A: The TGI was 70 µM.

Q: What about the GI50 [5] of the same compound?
A: The GI50 was 17.6 µM.

Q: And the TGI [5]?
A: The TGI was 49.3 µM.

Q: And the GI50 [6]?
A: Its GI50 is 17.7 µM.

Q: What about the TGI [6] of the same compound?
A: Its TGI is > 100 µM.

Q: And the GI50 [7]?
A: The GI50 was 0.0483 µM.

Q: And the TGI [7]?
A: The TGI was 5.7 µM.

Q: And the GI50 [8]?
A: The GI50 was 18.1 µM.

Q: And the TGI [8]?
A: The TGI was 57.2 µM.

Q: And the GI50 [9]?
A: Its GI50 is 23 µM.

Q: And the TGI [9]?
A: Its TGI is > 100 µM.

Q: And the GI50 [10]?
A: Its GI50 is 17.7 µM.

Q: And the TGI [10]?
A: Its TGI is 50.7 µM.

Q: Which results are given for `COc1ccc(-n2ccnc2-c2cc(OC)c(OC)c(OC)c2)cc1`?
A: GI50 [1]: 2.99 µM; TGI [1]: > 100 µM; GI50 [2]: 4.19 µM; TGI [2]: 85 µM; GI50 [3]: 5.76 µM; TGI [3]: > 100 µM; GI50 [4]: 1.33 µM; TGI [4]: 5.74 µM; GI50 [5]: 1.85 µM; TGI [5]: 7.82 µM; GI50 [6]: 6.66 µM; TGI [6]: > 100 µM; GI50 [7]: 1.87 µM; TGI [7]: 11.9 µM; GI50 [8]: 3.3 µM; TGI [8]: > 100 µM; GI50 [9]: 4.91 µM; TGI [9]: 71.2 µM; GI50 [10]: 6.64 µM; TGI [10]: > 100 µM

Q: Which results are given for `O=C1c2ccccc2-c2c1c1ccccc1c(=O)n2CCCNCCCCNCCCN1C(=O)c2ccccc2C2C(=O)c3ccccc3C21` (stereo not given)?
A: GI50 [1]: 1.19 µM; TGI [1]: 6.76 µM; GI50 [2]: 0.614 µM; TGI [2]: 1.45 µM; GI50 [3]: 1.02 µM; TGI [3]: 2.81 µM; GI50 [4]: 0.681 µM; TGI [4]: 1.61 µM; GI50 [5]: 0.859 µM; TGI [5]: 2.63 µM; GI50 [6]: 0.127 µM; TGI [6]: 0.837 µM; GI50 [7]: 0.0305 µM; TGI [7]: 0.823 µM; GI50 [8]: 0.512 µM; TGI [8]: 1.24 µM; GI50 [9]: 0.691 µM; TGI [9]: 1.85 µM; GI50 [10]: 3.86 µM; TGI [10]: 11.7 µM

Q: Which TGI [1] does the source give for `Cc1cc(C(C)(C)C)cc(CNC2CCCCC2)c1O` here?
A: The TGI was 30.9 µM.

Q: What about the TGI [2] of the same compound?
A: Its TGI is 29.7 µM.

Q: And the TGI [3]?
A: The TGI was 41.9 µM.

Q: And the TGI [4]?
A: Its TGI is 31.5 µM.

Q: What about the TGI [5] of the same compound?
A: Its TGI is 31.2 µM.

Q: And the TGI [6]?
A: Its TGI is 37.6 µM.

Q: What about the TGI [7] of the same compound?
A: Its TGI is 12.6 µM.

Q: And the TGI [8]?
A: Its TGI is 31 µM.

Q: What about the TGI [9] of the same compound?
A: Its TGI is 28.2 µM.

Q: And the TGI [10]?
A: The TGI was 28.4 µM.

Q: What does the source list for `Cc1c(O)c2c(c(O)c1Br)C(=O)C=CC2=O`?
A: GI50 [1]: 1.59 µM; TGI [1]: 2.33 µM and 3.07 µM; GI50 [2]: 0.343 µM; TGI [2]: 2.55 µM and 1.15 µM; GI50 [3]: 14.1 µM; TGI [3]: 3.93 µM and 27.1 µM; GI50 [4]: 0.334 µM; TGI [4]: 0.428 µM and 1.45 µM; GI50 [5]: 2.4 µM; TGI [5]: 1.66 µM and 7.1 µM; GI50 [6]: 1.82 µM; TGI [6]: 2.85 µM and 3.24 µM; GI50 [7]: 0.229 µM; TGI [7]: 2.72 µM and 0.582 µM; GI50 [8]: 1.9 µM; TGI [8]: 3.19 µM and 5.15 µM; GI50 [9]: 1.38 µM; TGI [9]: 1.23 µM and 2.95 µM; GI50 [10]: 0.924 µM; TGI [10]: 2.52 µM and 2.22 µM

Q: For `NC(N)=N/N=C/c1ccc(-c2ccc(-c3cc(Cl)cc(Cl)c3)s2)cc1`, which GI50 [1] is on record?
A: Its GI50 is 1.8 µM.

Q: And the TGI [1]?
A: Its TGI is 3.51 µM.

Q: And the GI50 [2]?
A: Its GI50 is 1.71 µM.

Q: And the TGI [2]?
A: The TGI was 3.54 µM.

Q: And the GI50 [3]?
A: Its GI50 is 2 µM.

Q: And the TGI [3]?
A: Its TGI is 4.08 µM.

Q: What about the GI50 [4] of the same compound?
A: Its GI50 is 1.49 µM.

Q: What about the TGI [4] of the same compound?
A: The TGI was 3.88 µM.

Q: What about the GI50 [5] of the same compound?
A: The GI50 was 2 µM.

Q: What about the TGI [5] of the same compound?
A: The TGI was 4.33 µM.

Q: And the GI50 [6]?
A: The GI50 was 1.74 µM.

Q: What about the TGI [6] of the same compound?
A: The TGI was 3.18 µM.

Q: What about the GI50 [7] of the same compound?
A: The GI50 was 1.67 µM.

Q: And the TGI [7]?
A: The TGI was 3.37 µM.

Q: And the GI50 [8]?
A: The GI50 was 1.58 µM.

Q: And the TGI [8]?
A: The TGI was 3.16 µM.

Q: And the GI50 [9]?
A: The GI50 was 1.5 µM.

Q: What about the TGI [9] of the same compound?
A: The TGI was 2.97 µM.

Q: And the GI50 [10]?
A: Its GI50 is 1.94 µM.

Q: What about the TGI [10] of the same compound?
A: Its TGI is 4.22 µM.
